{"source": "patent US12370200B2", "about": "“Pharmaceutical composition containing brexanolone, ganaxolone, or zuranolone, and use thereof” (Brii Biosciences, Inc., priority 2019, dated 2025)", "key": {"[1]": {"details": "human plasma, after oral administration; cited from earlier work"}, "[2]": {"assay": "Solubility of brexanolone by visual assessment of dissolution in various solvents", "type": "physicochemical", "details": "for solubility / solubility at 1 h: thermodynamic from solid; for solubility at 1 h: 40° C. for 1 h", "procedure": "Solubility of the supplied brexanolone was determined by visual assessment of dissolution in various solvents at RT (˜22° C.) and 40° C. Aliquots of solvent were added to a fixed amount of brexanolone (˜10 mg) at room temperature until the dissolution point or a maximum volume of 1.8 mL was reached. All samples were then heated to 40° C. for 1 h and dissolution was observed. As shown in Error!"}}, "note": "Like-named read-outs stand apart in the source and are kept apart here."}
{"smiles": "CC(=O)[C@H]1CC[C@H]2[C@@H]3CC[C@H]4C[C@](C)(O)CC[C@]4(C)[C@H]3CC[C@]12C", "note": "[Ganaxolone, ganaxolone]", "values": [{"measurement": "half-life", "setting": "[1]", "result": "approximately 20 hours"}]}
{"smiles": "CC(=O)[C@H]1CC[C@H]2[C@@H]3CC[C@H]4C[C@H](O)CC[C@]4(C)[C@H]3CC[C@]12C", "note": "[brexanolone]", "values": [{"measurement": "solubility", "setting": "[2]; 22 °C, organic solvent or mixture, RT, in MeCN, IPE, MTBE, IPA, MeOH, IPA:water (9:1, v:v), toluene, DMSO, EtOAc (span over these solvents), read-out: moderate solubility at RT", "result": "6 to 52", "unit": "mg/mL"}, {"measurement": "solubility", "setting": "[2]; 22 °C, organic solvent or mixture, RT, in THF and DCM, read-out: high solubility at RT", "result": "> 96", "unit": "mg/mL"}, {"measurement": "solubility at 1 h", "setting": "[2]; organic solvent or mixture, solvent 2-Propanol (IPA)", "result": "> 19", "unit": "mg/mL"}, {"measurement": "solubility", "setting": "[2]; organic solvent or mixture, solvent 2-Propanol (IPA), RT (~22° C.), read-out: Solubility at RT", "result": "19 to 49", "unit": "mg/mL"}, {"measurement": "solubility at 1 h", "setting": "[2]; organic solvent or mixture, solvent 2-Propanol:water (9:1, v:v)", "result": "> 20", "unit": "mg/mL"}, {"measurement": "solubility", "setting": "[2]; organic solvent or mixture, solvent 2-Propanol:water (9:1, v:v), RT (~22° C.), read-out: Solubility at RT", "result": "20 to 51", "unit": "mg/mL"}, {"measurement": "solubility at 1 h", "setting": "[2]; organic solvent or mixture, solvent Acetonitrile (MeCN)", "result": "> 6", "unit": "mg/mL"}, {"measurement": "solubility", "setting": "[2]; organic solvent or mixture, solvent Acetonitrile (MeCN), RT (~22° C.), read-out: Solubility at RT", "result": "6 to 10", "unit": "mg/mL"}, {"measurement": "solubility at 1 h", "setting": "[2]; organic solvent or mixture, solvent Dichloromethane (DCM)", "result": "> 108", "unit": "mg/mL"}, {"measurement": "solubility", "setting": "[2]; organic solvent or mixture, solvent Dichloromethane (DCM), RT (~22° C.), read-out: Solubility at RT", "result": "108 to 432", "unit": "mg/mL"}, {"measurement": "solubility at 1 h", "setting": "[2]; organic solvent or mixture, solvent Dimethyl sulfoxide (DMSO)", "result": "> 20", "unit": "mg/mL"}, {"measurement": "solubility", "setting": "[2]; organic solvent or mixture, solvent Dimethyl sulfoxide (DMSO), RT (~22° C.), read-out: Solubility at RT", "result": "20 to 49", "unit": "mg/mL"}, {"measurement": "solubility at 1 h", "setting": "[2]; organic solvent or mixture, solvent Ethyl Acetate (EtOAc)", "result": "> 21", "unit": "mg/mL"}, {"measurement": "solubility", "setting": "[2]; organic solvent or mixture, solvent Ethyl Acetate (EtOAc), RT (~22° C.), read-out: Solubility at RT", "result": "21 to 52", "unit": "mg/mL"}, {"measurement": "solubility at 1 h", "setting": "[2]; organic solvent or mixture, solvent Isopropyl ether (IPE)", "result": "> 6", "unit": "mg/mL"}, {"measurement": "solubility", "setting": "[2]; organic solvent or mixture, solvent Isopropyl ether (IPE), RT (~22° C.), read-out: Solubility at RT", "result": "6 to 11", "unit": "mg/mL"}, {"measurement": "solubility at 1 h", "setting": "[2]; organic solvent or mixture, solvent Methanol (MeOH)", "result": "> 19", "unit": "mg/mL"}, {"measurement": "solubility", "setting": "[2]; organic solvent or mixture, solvent Methanol (MeOH), RT (~22° C.), read-out: Solubility at RT", "result": "19 to 49", "unit": "mg/mL"}, {"measurement": "solubility at 1 h", "setting": "[2]; organic solvent or mixture, solvent Methyl t-butyl ether (MTBE)", "result": "> 10", "unit": "mg/mL"}, {"measurement": "solubility", "setting": "[2]; organic solvent or mixture, solvent Methyl t-butyl ether (MTBE), RT (~22° C.), read-out: Solubility at RT", "result": "10 to 20", "unit": "mg/mL"}, {"measurement": "solubility at 1 h", "setting": "[2]; organic solvent or mixture, solvent Tetrahydrofuran (THF)", "result": "> 96", "unit": "mg/mL"}, {"measurement": "solubility", "setting": "[2]; organic solvent or mixture, solvent Tetrahydrofuran (THF), RT (~22° C.), read-out: Solubility at RT", "result": "96 to 384", "unit": "mg/mL"}, {"measurement": "solubility at 1 h", "setting": "[2]; organic solvent or mixture, solvent Toluene", "result": "> 20", "unit": "mg/mL"}, {"measurement": "solubility", "setting": "[2]; organic solvent or mixture, solvent Toluene, RT (~22° C.), read-out: Solubility at RT", "result": "20 to 50", "unit": "mg/mL"}, {"measurement": "Solubility at RT", "setting": "[2]; solvent Water, RT (~22° C.)", "result": "<6", "unit": "mg/mL"}, {"measurement": "solubility at 1 h", "setting": "[2]; solvent Water", "result": "< 6", "unit": "mg/mL"}, {"measurement": "solubility", "setting": "[2]; solvent Water, RT (~22° C.), read-out: Solubility at RT", "result": "< 6", "unit": "mg/mL"}]}
